Test results from patent US8293790B2, “Pharmaceutical compositions comprising DGLA and benzoyl peroxide and methods of use thereof” (Dignity Sciences Limited, priority 2011, dated 2012).
In brackets after ≈: the same amount, converted by molar mass. Blank lines part the entries; values can stand above or below the compound they belong to.

Tests used:
P. acnes [1] = assay: Agar dilution method: growth of P. acnes and MIC, fatty acid compounds in combination with other compounds; format: cell-based, Propionibacterium acnes; conditions: for MIC (mg/mL) with 0.05 mg/mL 15-HETrE spike / MIC (mg/mL) with 0.1 mg/mL 15-OHEPA spike: itself an inhibitory concentration
Protocol: Several compounds including fatty acids such as DGLA, 15-OHEPA, and 15-HETrE were tested to determine their capacity to inhibit the growth of P. acnes. In an exemplary method, an agar dilution method was used to determine the minimum inhibitory concentration (MIC) of each tested compound. Briefly, the agar dilution method involved preparing a series of concentrations of each compound (e.g., nicotinamide, benzoyl peroxide, adapalene, metronidazole, DGLA, 15-OHEPA, and 15-HETrE) in a Reinforced Clostridial Agar (RCA) media that facilitates growth of P. acnes under anaerobic conditions. An inoculum of P. acnes was prepared by incubation of P. acnes for approximately seven days at 35-37° C. to achieve a ≧1.0 OD600 inoculum of P. acnes in RCM broth. A portion of this inoculum was then added to the surface of each plate as a 10 μL spot and incubated at 35-37° C. for 72 hours or more. Growth of P. acnes was then observed and compared to control plates in which no compound has been added, and positive inhibition plates prepared with erythromycin. […] The growth of P. acnes in the presence of nicotinamide, benzoyl peroxide, adapalene, metronidazole, DGLA, 15-OHEPA, and 15-HETrE was determined with varying concentrations of the compound (see, Table 2). Next, the MIC was determined as the concentration at which a marked reduction (+) occurs in the appearance of growth on the test plate (as per Clinical and Laboratory Standards Institute M11-A7). The compounds tested singly in Example 1 were tested in combination with one another to determine the capacity of the combination to inhibit the growth of P. acnes. In an exemplary method, the MIC was determined for each of the combination as described in Example 1. Briefly, test combinations included DGLA with nicotinamide, benzoyl peroxide, adapalene, or metronidazole; 15-HETrE with nicotinamide, benzoyl peroxide, adapalene, or metronidazole; and 15-OHEPA with nicotinamide, benzoyl peroxide, adapalene, or metronidazole. The tables below show the growth of P. acnes in the presence of 0.4 or 1.0 mg/mL DGLA with varying concentrations of nicotinamide, benzoyl peroxide, adapalene, or metronidazole (Table 3); the growth of P. acnes in the presence of 0.01 or 0.05 mg/mL 15-HETrE with varying concentrations of nicotinamide, benzoyl peroxide, adapalene, or metronidazole (Table 5); and the growth of P. acnes in the presence of 0.5 or 0.1 mg/mL 15-OHEPA with varying concentrations of nicotinamide, benzoyl peroxide, adapalene, or metronidazole (Table 7).

P. acnes [2] = assay: Agar dilution method: growth of P. acnes and MIC, compounds tested singly; format: cell-based, Propionibacterium acnes; design: key to Growth Index (+++, ++, +, −) Plate 1 / Growth Index (+++, ++, +, −) Plate 2 / Growth Index (+++, ++, +, −) Plate 3 / Growth Index (+++, ++, +, −) Avg: +++: confluent growth (comparable to control); ++: less confluent growth; +: marked reduction in growth to multiple tiny, single colonies; −: no growth present; conditions: for MIC: Cutibacterium acnes, compound alone, MIC = concentration with marked reduction (+) of growth, read-out: MIC (mg/mL) as per P-11-0007 or P-11-0008 Addendum A
Protocol: Several compounds including fatty acids such as DGLA, 15-OHEPA, and 15-HETrE were tested to determine their capacity to inhibit the growth of P. acnes. In an exemplary method, an agar dilution method was used to determine the minimum inhibitory concentration (MIC) of each tested compound. Briefly, the agar dilution method involved preparing a series of concentrations of each compound (e.g., nicotinamide, benzoyl peroxide, adapalene, metronidazole, DGLA, 15-OHEPA, and 15-HETrE) in a Reinforced Clostridial Agar (RCA) media that facilitates growth of P. acnes under anaerobic conditions. An inoculum of P. acnes was prepared by incubation of P. acnes for approximately seven days at 35-37° C. to achieve a ≧1.0 OD600 inoculum of P. acnes in RCM broth. A portion of this inoculum was then added to the surface of each plate as a 10 μL spot and incubated at 35-37° C. for 72 hours or more. Growth of P. acnes was then observed and compared to control plates in which no compound has been added, and positive inhibition plates prepared with erythromycin. […] The growth of P. acnes in the presence of nicotinamide, benzoyl peroxide, adapalene, metronidazole, DGLA, 15-OHEPA, and 15-HETrE was determined with varying concentrations of the compound (see, Table 2). Next, the MIC was determined as the concentration at which a marked reduction (+) occurs in the appearance of growth on the test plate (as per Clinical and Laboratory Standards Institute M11-A7).

- MIC (mg/mL) with 0.01 mg/mL 15-HETrE spike (P. acnes [1]; 0.01 mg/mL 15-HETrE spike): >1 mg/mL
- MIC (mg/mL) with 0.05 mg/mL 15-HETrE spike (P. acnes [1]): <0.2 mg/mL
- MIC (mg/mL) with 0.05 mg/mL 15-OHEPA spike (P. acnes [1]; 0.05 mg/mL 15-OHEPA spike): >1 mg/mL
- MIC (mg/mL) with 0.1 mg/mL 15-OHEPA spike (P. acnes [1]): <0.2 mg/mL
- MIC (mg/mL) with 0.4 mg/mL dGLA spike (P. acnes [1]; 0.4 mg/mL dGLA spike, dGLA supplied by Sigma, cat# E4504): >1 mg/mL
- MIC (mg/mL) with 1.0 mg/mL dGLA spike (P. acnes [1]; 1.0 mg/mL dGLA spike, dGLA supplied by Cayman, cat# 90230): >1 mg/mL
- MIC (P. acnes [2]): > 1 mg/mL
Structure (SMILES): Cc1ncc([N+](=O)[O-])n1CCO [Metronidazole]
- growth of P. acnes in combination with 15-HETrE compared with 15-HETrE alone (P. acnes [1]): did not reduce the growth of P. Acnes below that of 15-HETrE used alone
- growth of P. acnes in combination with 15-OHEPA compared with 15-OHEPA alone (P. acnes [1]): did not reduce the growth of P. Acnes below that of 15 OHEPA used alone
- growth of P. acnes in combination with DGLA compared with DGLA alone (P. acnes [1]): did not reduce the growth of P. Acnes below that of DGLA used alone
- Growth Index (+++, ++, +, −) Avg (P. acnes [2]; compound at 0.2 mg/mL in agar): +++
- Growth Index (+++, ++, +, −) Plate 1 (P. acnes [2]; compound at 0.2 mg/mL in agar): +++
- Growth Index (+++, ++, +, −) Plate 2 (P. acnes [2]; compound at 0.2 mg/mL in agar): +++
- Growth Index (+++, ++, +, −) Plate 3 (P. acnes [2]; compound at 0.2 mg/mL in agar): +++
- Growth Index (+++, ++, +, −) Avg (P. acnes [2]; compound at 0.4 mg/mL in agar): +++
- Growth Index (+++, ++, +, −) Plate 1 (P. acnes [2]; compound at 0.4 mg/mL in agar): +++
- Growth Index (+++, ++, +, −) Plate 2 (P. acnes [2]; compound at 0.4 mg/mL in agar): +++
- Growth Index (+++, ++, +, −) Plate 3 (P. acnes [2]; compound at 0.4 mg/mL in agar): +++
- Growth Index (+++, ++, +, −) Avg (P. acnes [2]; compound at 0.6 mg/mL in agar): +++
- Growth Index (+++, ++, +, −) Plate 1 (P. acnes [2]; compound at 0.6 mg/mL in agar): +++
- Growth Index (+++, ++, +, −) Plate 2 (P. acnes [2]; compound at 0.6 mg/mL in agar): +++
- Growth Index (+++, ++, +, −) Plate 3 (P. acnes [2]; compound at 0.6 mg/mL in agar): +++
- Growth Index (+++, ++, +, −) Avg (P. acnes [2]; compound at 0.8 mg/mL in agar): +++
- Growth Index (+++, ++, +, −) Plate 1 (P. acnes [2]; compound at 0.8 mg/mL in agar): +++
- Growth Index (+++, ++, +, −) Plate 2 (P. acnes [2]; compound at 0.8 mg/mL in agar): +++
- Growth Index (+++, ++, +, −) Plate 3 (P. acnes [2]; compound at 0.8 mg/mL in agar): +++
- Growth Index (+++, ++, +, −) Avg (P. acnes [2]; compound at 1.0 mg/mL in agar): +++
- Growth Index (+++, ++, +, −) Plate 1 (P. acnes [2]; compound at 1.0 mg/mL in agar): +++
- Growth Index (+++, ++, +, −) Plate 2 (P. acnes [2]; compound at 1.0 mg/mL in agar): ++
- Growth Index (+++, ++, +, −) Plate 3 (P. acnes [2]; compound at 1.0 mg/mL in agar): +++

- MIC (mg/mL) with 0.05 mg/mL 15-HETrE spike (P. acnes [1]): <1 mg/mL
- MIC (mg/mL) with 0.1 mg/mL 15-OHEPA spike (P. acnes [1]): <1 mg/mL
- MIC (P. acnes [2]): 10 to 15 mg/mL (≈ 81.9 to 123 mM)
Structure (SMILES): NC(=O)c1cccnc1 [Nicotinamide]
- growth of P. acnes in combination with 15-HETrE compared with 15-HETrE alone (P. acnes [1]): did not reduce the growth of P. Acnes below that of 15-HETrE used alone
- growth of P. acnes in combination with 15-OHEPA compared with 15-OHEPA alone (P. acnes [1]): did not reduce the growth of P. Acnes below that of 15 OHEPA used alone
- growth of P. acnes in combination with DGLA compared with DGLA alone (P. acnes [1]): did not reduce the growth of P. Acnes below that of DGLA used alone
- Growth Index (+++, ++, +, −) Avg (P. acnes [2]; compound at 1 mg/mL in agar): +++
- Growth Index (+++, ++, +, −) Plate 1 (P. acnes [2]; compound at 1 mg/mL in agar): +++
- Growth Index (+++, ++, +, −) Plate 2 (P. acnes [2]; compound at 1 mg/mL in agar): +++
- Growth Index (+++, ++, +, −) Plate 3 (P. acnes [2]; compound at 1 mg/mL in agar): +++
- Growth Index (+++, ++, +, −) Avg (P. acnes [2]; compound at 5 mg/mL in agar): +++
- Growth Index (+++, ++, +, −) Plate 1 (P. acnes [2]; compound at 5 mg/mL in agar): +++
- Growth Index (+++, ++, +, −) Plate 2 (P. acnes [2]; compound at 5 mg/mL in agar): +++
- Growth Index (+++, ++, +, −) Plate 3 (P. acnes [2]; compound at 5 mg/mL in agar): +++
- Growth Index (+++, ++, +, −) Avg (P. acnes [2]; compound at 10 mg/mL in agar): ++
- Growth Index (+++, ++, +, −) Plate 1 (P. acnes [2]; compound at 10 mg/mL in agar): ++
- Growth Index (+++, ++, +, −) Plate 2 (P. acnes [2]; compound at 10 mg/mL in agar): ++
- Growth Index (+++, ++, +, −) Plate 3 (P. acnes [2]; compound at 10 mg/mL in agar): ++
- Growth Index (+++, ++, +, −) Avg (P. acnes [2]; compound at 15 mg/mL in agar): +
- Growth Index (+++, ++, +, −) Plate 1 (P. acnes [2]; compound at 15 mg/mL in agar): −
- Growth Index (+++, ++, +, −) Plate 2 (P. acnes [2]; compound at 15 mg/mL in agar): +
- Growth Index (+++, ++, +, −) Plate 3 (P. acnes [2]; compound at 15 mg/mL in agar): +
